From patent publication US12458693B2, “Methods of treating iron overload with a BMP inhibitor” (Keros Therapeutics, Inc., priority 2020, dated 2025)
“Also recorded” adds a separate entry of the source.

Legend:
[1] = Phase 1 SAD/MAD study in healthy volunteers: pharmacokinetics; format: in vivo, human
Description: (§1) The primary objectives of this study were to a) evaluate safety and tolerability of escalating doses of the compound of Formula I-11 administered as single and multiple oral doses in healthy male volunteers and healthy postmenopausal female volunteers and b) evaluate the PK parameters following escalating doses of the compound of Formula I-11 administered as single and multiple oral doses. The secondary objective of this study was to evaluate the pharmacodynamic (PD) parameters following escalating doses of the compound of Formula I-11 administered as single and multiple oral doses. This study was conducted in two parts.
Participants in Part 1 received a single oral dose of the compound of Formula I-11 or placebo on Day 1 and serial PK samples were collected. Baseline assessments were performed on day −1 prior to dosing. Samples were collected for determination of pharmacodynamic parameters at pre-dose daily and up to 24 hours post dose (day 2) after a single oral dose of the compound of Formula I-11. […] Safety was evaluated by a Safety Review Committee prior to escalation to the next dose level cohort.
Participants in Part 2, Cohorts 1 through 3, received a daily oral dose of the compound of Formula I-11 (50, 100, or 200 mg liquid formulation respectively) or placebo for 7 days. […] Safety was evaluated by a Safety Review Committee prior to escalation to the next dose level cohort. […]

[2] = Phase 1 SAD/MAD study in healthy volunteers: safety and tolerability; format: in vivo, human; details: for dose level up to which well tolerated: healthy participants
Description: A total of 131 healthy, males aged 18 to 60 years and post-menopausal females aged 45 to 60 years, participated in this study.
as §1
Part 1 included 80 participants (10 cohorts of 8 participants each). Male and female participants who met the eligibility criteria were randomly assigned, in a ratio of 3:1 to receive the compound of Formula I-11 or matching placebo, N=6 and 2 per dose cohort, respectively. Participant enrollment included […] males and 12.5% females (postmenopausal). The IMP formulation used in Cohorts 1 through 6 was an oral capsule (doses of 1, 3, 10, 30, 100, or 300 mg capsule formulation). An oral liquid formulation was evaluated in Cohorts 7 through 10 (doses of 30, 100, 300 or 450 mg liquid formulation).
(§2) Participants in Part 1 received a single oral dose of the compound of Formula I-11 or placebo on Day 1 and serial PK samples were collected. Baseline assessments were performed on day −1 prior to dosing. Samples were collected for determination of pharmacodynamic parameters at pre-dose daily and up to 24 hours post dose (day 2) after a single oral dose of the compound of Formula I-11. Participants remained at the study site for observation for 24 hours post-dose through the PK sample collection on Day 2. Participants returned to the site for the 48, 72, and 120-hour post-dose sample collection on Days 3, 4, and 6. Safety was evaluated by a Safety Review Committee prior to escalation to the next dose level cohort.
Part 2, Cohorts 1 through 4, included 41 participants (4 cohorts of 10 participants each and 1 additional placebo participant in Cohort 1). Male and female participants who met the eligibility criteria were randomly assigned at a ratio of 4:1 to receive either the compound of Formula I-11 oral liquid formulation or matching placebo, N=8 and 2 per dose cohort respectively. Forty (97.6%) males and 1 (2.4%) female (placebo) participant were enrolled.
(§3) Participants in Part 2, Cohorts 1 through 3, received a daily oral dose of the compound of Formula I-11 (50, 100, or 200 mg liquid formulation respectively) or placebo for 7 days. A daily oral dose of the compound of Formula I-11 or placebo in participants in Part 2, Cohort 4 (350 mg liquid formulation) was planned for 14 days but was discontinued early in all subjects, either by the Investigator because of AEs, or by the Sponsor. A decision was made by the Sponsor to discontinue dosing of the entire cohort based on the frequency of AEs and laboratory abnormalities after Day 9. In Cohort 4, participants on the compound of Formula I-11 received daily oral dosing of 350 mg for up to 7 days; one placebo participant received daily oral dosing for 9 days. Samples were collected for determination of pharmacodynamic parameters at pre-dose daily and to 24 hours post dose (day 8) while on drug. Daily trough PK samples were collected for the determination of steady-state from Day 2 to Day 12 or 13. Participants returned to the site on Day 30 for an end-of-study visit. Safety was evaluated by a Safety Review Committee prior to escalation to the next dose level cohort.
Part 2, MAD Cohort 5 (C5) participants received either the compound of Formula I-11, 100 mg (n=8) or placebo (n=2) on Days 1, 2, 3, 4, 5, 6, 7. The last dose was administered on the morning of Day 7. […]

transferrin saturation = test: Transferrin saturation (TSAT) in healthy volunteers; format: in vivo, human
Method: as §2, §3
(§4) Pharmacodynamic endpoints: Protocol-specified endpoints were assessed at baseline and regularly throughout the study period. These assessments included measurements of serum iron, transferrin saturation (calculated as serum iron/total iron-binding capacity), serum ferritin, serum hepcidin, and reticulocyte hemoglobin content. Measurements of all pharmacodynamic end points were made using standard clinical laboratory tests. Hepcidin analysis was performed using an ELISA kit from Intrinsic LifeSciences (Intrinsic Hepcidin IDx™ ELISA kit).

[3] = tested on: reticulocyte hemoglobin content; test: Reticulocyte hemoglobin content in healthy volunteers (MAD); format: in vivo, human
Method: as §3, §4

serum iron [4] = test: Serum iron in healthy volunteers; format: in vivo, human
Method: as §2, §3, §4

lymphocytes = test: Lymphocyte counts in healthy volunteers (MAD); format: in vivo, human
Method: as §3

serum hepcidin = test: Serum hepcidin in healthy volunteers (Intrinsic Hepcidin IDx ELISA); format: in vivo, human
Method: as §3, with “Daily trough PK samples were collected for the determination of steady-state from Day 2 to Day 12 or 13. Participants returned to the site on Day 30 for an end-of-study visit.” left out, “cohort. […]” for “cohort.”
(§5) Pharmacodynamic endpoints: Protocol-specified endpoints were assessed at baseline and regularly throughout the study period. These assessments included measurements of serum iron, transferrin saturation (calculated as serum iron/total iron-binding capacity), serum ferritin, serum hepcidin, and reticulocyte hemoglobin content. […]

serum ferritin = test: Serum ferritin in healthy volunteers; format: in vivo, human
Method: as §2
Participants in Part 2, Cohorts 1 through 3, received a daily oral dose of the compound of Formula I-11 (50, 100, or 200 mg liquid formulation respectively) or placebo for 7 days. […] Safety was evaluated by a Safety Review Committee prior to escalation to the next dose level cohort.
as §5

hepcidin 25 = test: Time course of serum hepcidin in wild-type mice (ELISA); format: in vivo, C57BI/6 mice; details: 5 mg/kg gavage once daily, third treatment day
Method: (§6) To assess the effect of the compound of Formula I-42, a small molecule selective ALK2 kinase inhibitor, on hepcidin and serum iron, a time course experiment was conducted. For time course analysis, female C57BI/6 mice were gavaged once daily with either the compound of Formula I-42 (5 mg/kg), or vehicle. On the third treatment day, ten mice from each dosing group were euthanized 4, 6, 8, 12, 16, or 24 hours post-dosing. Blood was sampled and serum extracted. The mature form of hepcidin (hepcidin 25) was measured in serum with the use of a commercial ELISA (Intrinsic LifeSciences, CA) as per the manufacturer's instructions. Serum iron levels were determined with the use of a commercial assay that was based on the standard bathophenanthroline disulfonate method (BioAssay Systems, CA) as per the manufacturer's instructions. […] Data are shown as the average±SEM.

serum iron [5] = test: Time course of serum iron in wild-type mice (bathophenanthroline disulfonate method); format: in vivo, C57BI/6 mice; details: 5 mg/kg gavage once daily
Method: as §6

liver iron content = test: Liver iron content in iron dextran mouse model of iron overload, first assay (30% HCl 10% TCA extraction); format: in vivo, CD1 mice; details: 5 mg/kg QD, by 63 hours of dosing, iron overloaded mice; ****P<0.0001
Method: (§7) After 20 days of iron loading, a subgroup of mice was sacrificed to confirm iron overload. The remaining iron loaded mice were dosed QD with either the compound of Formula I-42, a small molecule selective ALK2 kinase inhibitor (5 mg/kg) or vehicle. […] Mice were sacrificed 16 hours post the 1st dose (16 hr) and […] post the 3rd dose (63 hr) of the compound of Formula I-42 and livers dissected and weighed.
(§8) Two assays were performed to evaluate tissue iron. In the first assay, non-heme tissue iron was extracted via acid hydrolysis and iron levels determined using the bathophenanthroline disulfonate method. Briefly, 50 mg sections of mouse liver were flash frozen on liquid nitrogen at study termination. Samples were processed by addition of a 30% HCl 10% Trichloroacetic acid mixture and allowed to extract for 20 hours at 65° C. Following extraction, samples were cooled to room temperature and centrifuged briefly. Samples were transferred to a 96-well plate at the appropriate dilution and a chromogen reagent mixture containing bathophenanthrolinedisulfonic acid, thioglycolic acid, and saturated sodium acetate was added. Samples and standards were then read via absorbance at 535 nm on a SpectraMax plate reader immediately. Sample concentrations were determined by linear regression analysis in GraphPad Prism. […] Data are shown as average±SEM. […]

[6] = tested on: non-dextran-bound iron content in livers; test: Non-dextran-bound liver iron in iron dextran mouse model of iron overload, second assay (10% HCl 10% TCA extraction); format: in vivo, CD1 mice; details: 5 mg/kg QD, iron overloaded mice; **P<0.01, ****P<0.0001
Method: as §7
as §8, with “In” for “Two assays were performed to evaluate tissue iron. In”, “second” for “first”, “10%” for “30%”, “containing of” for “containing”, “standards and blanks” for “standards”, “after a brief incubation.” for “immediately.”

[7] = Day 4, MAD first dose level (50 mg daily)
[8] = Day 4, MAD fourth dose level (350 mg daily)
[9] = Day 4, MAD second dose level (100 mg daily)
[10] = Day 4, MAD third dose level (200 mg daily)

COc1cc2c(-c3cnn4cc(N5CCC(N6CCN(C)CC6)CC5)cnc34)ccnc2cc1F [Formula I-11]
half-life ([1]; both sexes, human, in vivo, oral, approximately): 10 to 15 h | mean AUC and Cmax versus dose ([1]; multiple doses from 50-200 mg): increased linearly with greater than dose-proportional increases | dose level up to which well tolerated ([2]; after 7 daily oral doses): up to 200 mg | AEs reported in >2 treated subjects and higher than placebo ([2]; human, in vivo): headache, nausea, vomiting, diarrhea, gastroenteritis, chills, pyrexia, myalgia, decreased appetite, lymphopenia, neutropenia, abdominal discomfort, abdominal pain (upper), dizziness, fatigue, rhinorrhea, tonsillitis, and liver enzyme increases | AEs that led to study drug discontinuation in three or more participants ([2]; human, in vivo): lymphopenia and chills | participants who discontinued the study due to AEs ([2]; human, in vivo): 10 of 40 (25%) | serious adverse events ([2]; human, in vivo): no serious adverse events | severity of the majority of AEs ([2]; human, in vivo): mild or moderate in severity | subjects who discontinued the study due to AEs ([2]; human, in vivo): none | subjects with increases in ALT>2×ULN ([2]; human, in vivo): 3 | dose level up to which well tolerated ([2]; single oral dose): up to 450 mg | transferrin saturation mean percent change from baseline (transferrin saturation; [7]): 1.6% | transferrin saturation mean percent change from baseline (transferrin saturation; [8]): 30.1% | transferrin saturation mean percent change from baseline (transferrin saturation; [9]): 1.5% | transferrin saturation mean percent change from baseline (transferrin saturation; [10]): 7.5% | observed PD response (transferrin saturation) (transferrin saturation; once-daily doses of 50 mg): not substantially different from placebo | observed PD response (transferrin saturation) (transferrin saturation; single dose of 30 mg, liquid formulation): not substantially different from placebo | effect on transferrin saturation (transferrin saturation; single or repeated doses of 100 mg or above): sustained, dose-related increases in transferrin saturation | peak increase in reticulocyte hemoglobin content ([3]; MAD): 7 days | start of increase in reticulocyte hemoglobin content ([3]; MAD cohorts 1-4, post-dosing): 4 days | effect on reticulocyte hemoglobin content ([3]; repeated administration): increases over baseline in the hemoglobin content of reticulocytes | serum iron mean change from baseline (serum iron [4]; [7]): 1.48 μM/L | serum iron mean change from baseline (serum iron [4]; [8]): 17.71 μM/L | serum iron mean change from baseline (serum iron [4]; [9]): 0.59 μM/L | serum iron mean change from baseline (serum iron [4]; [10]): 5.11 μM/L | serum iron concentrations by Day 7 (serum iron [4]; MAD, some participants exhibiting large PD effects on Day 4): returned to baseline or below | time of peak serum iron concentrations (serum iron [4]; multiple dose regimen, day of treatment): Day 3 or 4 | effect on serum iron (serum iron [4]; single (SAD) or once-daily (MAD) oral administration): rapid, robust, and sustained dose-related increases in serum iron | time of peak serum iron effect (serum iron [4]; single dose, Day 2, post-dose): 24 h | reversibility of lymphopenia (lymphocytes; after the treatment period ended): reversible | development of lymphopenia (lymphocyte counts<1.0×10^9 cells/L) (lymphocytes; repeated oral administration, onward): ≥ 6 day | start of decreases in lymphocyte counts (lymphocytes; repeated oral administration, post treatment, higher doses): 5 days | earliest decrease in hepcidin after first dose (serum hepcidin; MAD Cohort 5, 100 mg): 4 h | effect on serum hepcidin versus placebo (serum hepcidin; once-daily oral over 7 days, similar at 50 mg, 100 mg and 200 mg): robust decreases in baseline hepcidin | effect on serum ferritin (serum ferritin; MAD cohort participants): decreases were observed in serum ferritin | effect on serum ferritin, single versus multiple doses (serum ferritin; SAD versus MAD): observed only after multiple doses

COc1cc2c(-c3cnn4cc(N5CC(N6CCN(C)CC6)C5)cnc34)ccnc2cc1F [Formula I-42]
onset of hepcidin reduction (hepcidin 25): as soon as four hours post-administration | hepcidin reduction sustained through (hepcidin 25; post-administration): 12 h | effect on circulating hepcidin (hepcidin 25; wild-type mice): reduced circulating hepcidin levels | peak serum iron (serum iron [5]; at 16 hours, average): 716.31 µg/dL | onset of serum iron increase (serum iron [5]; third treatment day): eight hours post-administration | time of peak serum iron (serum iron [5]; third treatment day, post-administration): 16 h | effect on serum iron (serum iron [5]; third treatment day, wild-type mice): increased serum iron | effect on liver iron content (liver iron content): reduce liver iron content; also recorded: significantly reduced liver iron content | effect on non-dextran-bound iron content in livers [6]: significantly reduced non-dextran-bound iron content
